# Experimental data taken from PubChem BioAssay (NCI).
#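 Abbreviation: GI50, concentration required for 50% inhibition of growth. TGI: concentration producing complete growth inhibition.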
# Assays:
# Experiment in all cases: DTP human tumour cell line panel, 384-well format
# 786-0 renal = tested on: 786-0 renal
# A498 renal = tested on: A498 renal
# A549 NSCLC = tested on: A549 NSCLC
# ACHN renal = tested on: ACHN renal
# BT-549 breast = tested on: BT-549 breast
# CAKI-1 renal = tested on: CAKI-1 renal
# CCRF-CEM leukemia = tested on: CCRF-CEM leukemia
# COLO 205 colon = tested on: COLO 205 colon
# DU-145 prostate = tested on: DU-145 prostate
# HCC-2998 colon = tested on: HCC-2998 colon
# HCT-116 colon = tested on: HCT-116 colon
# HCT-15 colon = tested on: HCT-15 colon
# HL-60(TB) leukemia = tested on: HL-60(TB) leukemia
# HOP-62 NSCLC = tested on: HOP-62 NSCLC
# HOP-92 NSCLC = tested on: HOP-92 NSCLC
# HT29 colon = tested on: HT29 colon
# IGROV1 ovarian = tested on: IGROV1 ovarian
# K-562 leukemia = tested on: K-562 leukemia
# KM12 colon = tested on: KM12 colon
# LOX IMVI melanoma = tested on: LOX IMVI melanoma
# M14 melanoma = tested on: M14 melanoma
# MALME-3M melanoma = tested on: MALME-3M melanoma
# MCF7 breast = tested on: MCF7 breast
# MDA-MB-231 breast = tested on: MDA-MB-231 breast
# MDA-MB-435 melanoma = tested on: MDA-MB-435 melanoma
# MDA-MB-468 breast = tested on: MDA-MB-468 breast
# MOLT-4 leukemia = tested on: MOLT-4 leukemia
# NCI-H226 lung = tested on: NCI-H226 lung
# NCI-H23 lung = tested on: NCI-H23 lung
# NCI-H322M lung = tested on: NCI-H322M lung
# NCI-H460 NSCLC = tested on: NCI-H460 NSCLC
# NCI-H522 lung = tested on: NCI-H522 lung
# NCI/ADR-RES ovarian = tested on: NCI/ADR-RES ovarian
# OVCAR-3 ovarian = tested on: OVCAR-3 ovarian
# OVCAR-4 ovarian = tested on: OVCAR-4 ovarian
# OVCAR-5 ovarian = tested on: OVCAR-5 ovarian
# OVCAR-8 ovarian = tested on: OVCAR-8 ovarian
# PC-3 prostate = tested on: PC-3 prostate
# RPMI-8226 leukemia = tested on: RPMI-8226 leukemia
# RXF 393 renal = tested on: RXF 393 renal
# SF-295 CNS = tested on: SF-295 CNS
# SF-539 CNS = tested on: SF-539 CNS
# SK-MEL-2 melanoma = tested on: SK-MEL-2 melanoma
# SK-MEL-28 melanoma = tested on: SK-MEL-28 melanoma
# SK-MEL-5 melanoma = tested on: SK-MEL-5 melanoma
# SK-OV-3 ovarian = tested on: SK-OV-3 ovarian
# SN12C renal = tested on: SN12C renal
# SNB-19 CNS = tested on: SNB-19 CNS
# SR leukemia = tested on: SR leukemia
# SW-620 colon = tested on: SW-620 colon
# T-47D breast = tested on: T-47D breast
# TK-10 renal = tested on: TK-10 renal
# U251 glioblastoma = tested on: U251 glioblastoma
# UACC-257 melanoma = tested on: UACC-257 melanoma
# UACC-62 melanoma = tested on: UACC-62 melanoma
# UO-31 renal = tested on: UO-31 renal
smiles,measurement,setting,value
C=CCN1CC(=O)N2[C@@H](Cc3ccc(O)cc3F)C(=O)N(Cc3cccc(N4CC(N5CCN(CC)CC5)C4)n3)C[C@@H]2N1C(=O)NCc1ccccc1,GI50,786-0 renal,0.0359 µM
same,TGI,786-0 renal,0.68 µM
same,GI50,A498 renal,0.0354 µM
same,TGI,A498 renal,0.232 µM
same,GI50,A549 NSCLC,0.0315 µM
same,TGI,A549 NSCLC,3.13 µM
same,GI50,ACHN renal,0.231 µM
same,TGI,ACHN renal,1.99 µM
same,GI50,BT-549 breast,0.0276 µM
same,TGI,BT-549 breast,0.0984 µM
same,GI50,CAKI-1 renal,0.03 µM
same,TGI,CAKI-1 renal,0.105 µM
same,GI50,CCRF-CEM leukemia,0.0298 µM
same,TGI,CCRF-CEM leukemia,0.231 µM
same,GI50,COLO 205 colon,0.0198 µM
same,TGI,COLO 205 colon,0.0803 µM
same,GI50,DU-145 prostate,0.0594 µM
same,TGI,DU-145 prostate,23 µM
same,GI50,HCC-2998 colon,0.0413 µM
same,TGI,HCC-2998 colon,0.398 µM
same,GI50,HCT-116 colon,0.0239 µM
same,TGI,HCT-116 colon,0.296 µM
same,GI50,HCT-15 colon,0.315 µM
same,TGI,HCT-15 colon,3.76 µM
same,GI50,HL-60(TB) leukemia,0.0578 µM
same,TGI,HL-60(TB) leukemia,0.293 µM
same,GI50,HOP-62 NSCLC,0.0323 µM
same,TGI,HOP-62 NSCLC,0.19 µM
same,GI50,HOP-92 NSCLC,0.0139 µM
same,TGI,HOP-92 NSCLC,0.0464 µM
same,GI50,HT29 colon,0.0521 µM
same,TGI,HT29 colon,12.9 µM
same,GI50,IGROV1 ovarian,0.0231 µM
same,TGI,IGROV1 ovarian,0.0599 µM
same,GI50,K-562 leukemia,0.0359 µM
same,TGI,K-562 leukemia,18.1 µM
same,GI50,KM12 colon,0.0368 µM
same,TGI,KM12 colon,32.3 µM
same,GI50,LOX IMVI melanoma,0.0337 µM
same,TGI,LOX IMVI melanoma,0.0987 µM
same,GI50,M14 melanoma,0.0321 µM
same,TGI,M14 melanoma,0.196 µM
same,GI50,MALME-3M melanoma,0.023 µM
same,TGI,MALME-3M melanoma,0.0631 µM
same,GI50,MCF7 breast,0.472 µM
same,TGI,MCF7 breast,46.4 µM
same,GI50,MDA-MB-231 breast,0.0108 µM
same,TGI,MDA-MB-231 breast,0.0349 µM
same,GI50,MDA-MB-435 melanoma,0.0608 µM
same,TGI,MDA-MB-435 melanoma,32.4 µM
same,GI50,MDA-MB-468 breast,0.0285 µM
same,TGI,MDA-MB-468 breast,0.0873 µM
same,GI50,MOLT-4 leukemia,0.0104 µM
same,TGI,MOLT-4 leukemia,0.0226 µM
same,GI50,NCI-H226 lung,0.0284 µM
same,TGI,NCI-H226 lung,0.372 µM
same,GI50,NCI-H23 lung,0.024 µM
same,TGI,NCI-H23 lung,0.0912 µM
same,GI50,NCI-H322M lung,0.0546 µM
same,TGI,NCI-H322M lung,2.21 µM
same,GI50,NCI-H460 NSCLC,0.0217 µM
same,TGI,NCI-H460 NSCLC,0.0904 µM
same,GI50,NCI-H522 lung,0.0162 µM
same,TGI,NCI-H522 lung,0.0827 µM
same,GI50,NCI/ADR-RES ovarian,3.13 µM
same,TGI,NCI/ADR-RES ovarian,23.6 µM
same,GI50,OVCAR-3 ovarian,0.0244 µM
same,TGI,OVCAR-3 ovarian,0.0846 µM
same,GI50,OVCAR-4 ovarian,0.0232 µM
same,TGI,OVCAR-4 ovarian,0.0741 µM
same,GI50,OVCAR-5 ovarian,0.0204 µM
same,TGI,OVCAR-5 ovarian,0.0661 µM
same,GI50,OVCAR-8 ovarian,0.0238 µM
same,TGI,OVCAR-8 ovarian,0.282 µM
same,GI50,PC-3 prostate,0.0278 µM
same,TGI,PC-3 prostate,0.0911 µM
same,GI50,RPMI-8226 leukemia,0.0178 µM
same,TGI,RPMI-8226 leukemia,0.0339 µM
same,GI50,RXF 393 renal,0.0625 µM
same,TGI,RXF 393 renal,0.593 µM
same,GI50,SF-295 CNS,0.0798 µM
same,TGI,SF-295 CNS,0.528 µM
same,GI50,SF-539 CNS,0.0215 µM
same,TGI,SF-539 CNS,0.0719 µM
same,GI50,SK-MEL-2 melanoma,0.0206 µM
same,TGI,SK-MEL-2 melanoma,0.0831 µM
same,GI50,SK-MEL-28 melanoma,0.0259 µM
same,TGI,SK-MEL-28 melanoma,0.077 µM
same,GI50,SK-MEL-5 melanoma,0.0243 µM
same,TGI,SK-MEL-5 melanoma,0.0706 µM
same,GI50,SK-OV-3 ovarian,0.0255 µM
same,TGI,SK-OV-3 ovarian,0.0687 µM
same,GI50,SN12C renal,0.0474 µM
same,TGI,SN12C renal,18.6 µM
same,GI50,SNB-19 CNS,0.025 µM
same,TGI,SNB-19 CNS,0.226 µM
same,GI50,SR leukemia,0.0262 µM
same,TGI,SR leukemia,0.0584 µM
same,GI50,SW-620 colon,0.0847 µM
same,TGI,SW-620 colon,> 100 µM
same,GI50,T-47D breast,0.0272 µM
same,TGI,T-47D breast,0.193 µM
same,GI50,TK-10 renal,0.0526 µM
same,TGI,TK-10 renal,0.637 µM
same,GI50,U251 glioblastoma,0.0236 µM
same,TGI,U251 glioblastoma,0.0888 µM
same,GI50,UACC-257 melanoma,0.0502 µM
same,TGI,UACC-257 melanoma,0.333 µM
same,GI50,UACC-62 melanoma,0.0214 µM
same,TGI,UACC-62 melanoma,0.0675 µM
same,GI50,UO-31 renal,0.408 µM
same,TGI,UO-31 renal,3.69 µM
